Laboratory results published in patent US8445511B2, “Quinoline or quinoxaline derivatives for treating neurodegenerative diseases” (Centre National de la Recherche Scientifique (SNRS), priority 2008, dated 2013).

Columns and labels:
[1] = system: MAP2+ neurons; experiment: Count of MAP2+ neurons in primary mesencephalic cultures (phenotypic specificity); format: cell-based, rat; details: DIV12; 10 nM and 100 nM; FIG. 5
Description: At 8 days of culture, the cells are fixed by a 4% formaldehyde solution and then washed three times with PBS. The cells then undergo several immunohistochemistry procedures: • anti-tyrosine hydroxylase (TH) visualized by a secondary antibody coupled to a fluorochrome that emits in the red spectrum (Cy3). • anti-MAP2 (MAP=microtubule-associated protein) (neuron marker) visualized by a secondary antibody coupled to a fluorochrome that emits in the green spectrum (alexa488). • DAPI (4′,6-diamidino-2-phenylindole), a nuclear marker that emits in the blue spectrum.
Neuroprotection is evaluated by counting TH positive neurons directly under the microscope or MAP2 positive on images, at 15 images per well, expressed as a percentage of the untreated control. The experiments include three wells per condition. Three independent experiments are carried out under these conditions. Total neurite length per cell calculated by the Neurite Outgrowth software by Explora Nova on 20 neurons photographed independently per well gives an indication of the state of maturation of the dopaminergic neurons. […]
First, the neurons are cultured and maintained at DIV12. […] The neurons are then counted via image with X20 enlargement at 15 images per well.

[2] = system: dopaminergic neurons; experiment: Measurement of tritiated dopamine reuptake in primary mesencephalic cultures; format: cell-based, rat; details: 12 days of culture; 1 nM, 10 nM, 100 nM and 1 μM; FIG. 4
Experimental: The primary cultures are treated and cultivated as previously indicated for 12 days in a 24-well plate. The medium is then replaced by a medium lacking serum and enriched with glucose (PBS+5 mM glucose). One well is treated with GBR (5 μM) and will be used to determine nonspecific reuptake. The cells are incubated in this medium for 10 minutes. 50 μl of tritiated dopamine in solution (20 μl of 1 mCi/ml ^3H-dopamine in 1 ml PBS) is added in each well and the cells are incubated for 20 minutes at 37° C.
The wells are then washed twice with PBS, and then 500 μl distilled water is added. The cells are scraped and the liquid transferred to scintillation vials containing 7 ml scintillation liquid (Biodegradable Counting Scintillant-liquid scintillation spectroscopy, BCS), well by well. The samples are run through the scintillation counter.
Neurons at 12 days of culture are then cultivated for a short time in the presence of tritiated dopamine (H^3-DA). After washing, the cells are lysed and intraneuronal H^3-DA is recovered and assayed by scintillation counter.

[3] = system: PC12 pheochromocytoma cells; experiment: Differentiating activity on PC12 pheochromocytoma cells; format: cell-based; details: 100 nM and 1 μM
Experimental: The cells are maintained in […] flasks at 37° C. in a humid atmosphere enriched by 5% CO2 in RPMI medium supplemented with 10% horse serum, 5% fetal calf serum, 1% glutamine and 1% penicillin/streptomycin mixture. The horse and fetal calf serums are decomplemented for 40 minutes at 56° C. before use. The cultures are divided when they reach 80% confluence, approximately every 3 days. Each operation is performed by scraping the cells and then centrifugation at 1,000 rpm for 5 minutes, mechanical dissociation of the cell aggregates and inoculation at the dilution desired. Before treatment, the cells are cultivated 5 days in a deprivation medium composed of RPMI supplemented with 1% horse serum, 0.5% fetal calf serum, 1% glutamine, 1% penicillin/streptomycin and 50 ng/ml NGF (nerve growth factor). After 5 days of pretreatment with NGF, the cells are washed twice with PBS (phosphate buffered saline), taken up in deprivation medium, scraped and pelleted at 1,000 rpm for 5 minutes. The cells are then dissociated, counted on a hemocytometer and inoculated at a concentration of 15.6×10^3 cells/cm^2. After 4 hours, the cells are treated by various compounds of the invention at the concentrations desired (stock solutions in absolute ethanol and then a series of dilutions in water). […] At least 20 differentiated cells per well are photographed at random and the length of their neurites are measured using the NeuronJ macro of the ImageJ software. The number of neurites is also counted. Mean total neurite length and number of neurites are then calculated per cell. […] In order to quantify the differentiation of PC12 cells we calculated the ratio between the number of cells emitting dendritic extensions and the total number of cells 48 hours after treatment with our substances at 100 nM and at 1 μM. Morphological changes at the microscopic level were quantified for the cells emitting extensions at approximately 100 cells per condition. Thus number of neurites and mean neurite length per cell were measured using the NeuronJ measurement software by ImageJ.

Question: Which “survival of total neurons of the culture (MAP2+ neurons) versus untreated control” value [1] does the source give for `C#CC(O)CCCCCCCCCCCCC#Cc1ccc2ccccc2n1` (centres unmarked) [Compound N3, 17-(quinolin-2-yl)heptadec-1,16-diyn-3-ol] here?
Answer: increased

Question: What about the “reuptake of tritiated dopamine by dopaminergic neurons versus untreated control” value [2] of the same molecule?
Answer: increased

Question: What about the “cells producing extensions (percentage of PC12 cells differentiated) by comparison with untreated cells” value ([3]; 48 hours after treatment, FIG. 1A) of the same molecule?
Answer: two to three times as many cells produce extensions

Question: What about the “mean neurite length per cell compared to the control” value ([3]; PC12 cells, FIG. 1B) of the same molecule?
Answer: longer

Question: What about the “number of neurites per cell compared to the control” value ([3]; PC12 cells, FIG. 1B) of the same molecule?
Answer: more
